Source: patent publication US11566233B2, “Three-dimensional in vitro lung model, process for preparing said model, and its use for determining and /or predicting the sensitizing effects of inhalable products” (LUXEMBOURG INSTITUTE OF SCIENCE AND TECHNOLOGY, priority 2016, dated 2023)
Where two headings read alike, the source gives them in different places.

Key:
[1] = test system: THP-1 cells in monoculture; test: Cell surface marker expression on THP-1 cells in monoculture, submerged conditions (h-CLAT reproduction); type: cell-based, human; conditions: 24 h exposure
Excerpt: In parallel, THP-1 cells were exposed in submerged conditions in monoculture in order to reproduce the data obtained using the h-CLAT (human cell line activation test) assay. The h-CLAT assay is based on the property of chemicals to activate dendritic cells, property which is common to both skin and respiratory sensitizers. The h-CLAT is an in vitro model validated at the European level (ECVAM validation).
On a comparative purpose, the expression of CD86 and CD54 cell surface markers were also evaluated in the h-CLAT. It is currently recommended to use the h-CLAT to assess the skin sensitizing potential of chemicals. As skin and lung share the DC activation property, h-CLAT may be considered to be used to assess also the respiratory sensitizing potential of chemicals. To remind, there is no validated models to assess respiratory sensitization available on the market yet.
As different antibodies, fluorochromes and equipment were used to measure the CDs expression, threshold level obtained in literature on the h-CLAT could not be compared to those measured in this example.

[2] = test system: THP-1 cells in the tetraculture lung model; test: Flow cytometry of cell surface marker expression on THP-1 cells in the tetraculture lung model; type: cell-based, human; conditions: 24 h exposure, compared to control
Protocol: 24 h and 48 h after exposure to the Vitrocell Cloud, THP-1 DC were recovered in the medium in the well. After centrifugation for 5 minutes at 300 g, cells were washed with PBS and staining was performed using antibodies listed in table 1 below (following the manufacturer's recommended dilutions) and the corresponding isotype control to determine the unspecific binding of the antibody and ensure the observed staining is due to specific binding rather than an artifact.
Relative Fluorescence Intensity (RFI) was used as an indicator of OX40L, IL7ra, CD40 and CD86 and CD54 expression and was calculated by the following formula I: […]
(§1) To measure the expression of cell surface markers and the release of different cytokines, the cells of inserts prepared according to example 1 above were exposed to the CV75 or, when it was not possible to reach 75% of viability, cells were exposed to the maximum of solubility of the compounds.
(§2) After 24 h and 48 h, THP-1 cells were recovered, stained and analysed using a flow cytometer according to the protocol detailed in example 2 above. Supernatants were recovered for cytokines measurements.

[3] = Solubility in medium containing 0.2% of DMSO; type: physicochemical
Protocol: (§3) FIGS. 11A and 11B are diagrams showing viability of THP-1 cells after 24 h exposure to PA (FIG. 11A) and TMA (FIG. 11B) in monoculture in submerged conditions. In this figure, the highest tested concentrations represent the maximum of solubility of the compounds in medium containing 0.2% of DMSO.

[4] = test system: tetraculture lung model (A549, EA.hy926, THP-1, Mϕ-THP-1); test: Alamar Blue viability of the tetraculture lung model after Vitrocell Cloud exposure at the air-liquid interface; conditions: 24 h and 48 h after exposure
Protocol: (§4) Example of exposure of the inserts is performed in a Vitrocell® Cloud device (Waldkirch, Germany), previously cleaned under sterile conditions, and maintained at 37° C. The inserts are placed into the device. A cloud, from 200 to 500 μL of the product to be tested) is then distributed homogenously inside the chamber and starts to settle on the surface. After about 10 to 30 minutes (depending on the injected product), the cloud is settled by single droplet sedimentation. The concentration which is deposited on the insert can be calculated in g/cm^2.
(§5) Inserts prepared according to example 1 were exposed to chemical compounds and to positive controls using the Vitrocell® Cloud system (Vitrocell, Waldkirch, Germany). All compounds were diluted in a 1/1(v/v) solution of sterile saline solution and PBS.
(§6) Inserts were exposed to a range of concentrations to chemical respiratory irritants and sensitizers in order to determine first the viability of the tissue using the Alamar Blue assay. […] Upon entering cells, resazurin is reduced to pink highly fluorescent resorufin. Viable cells continuously convert resazurin to resorufin. The fluorescence is proportional to cell viability.
(§7) Following 24 h and 48 h exposure to the compounds through the Vitrocell cloud, cells were incubated for 1 hour to 400 μM of Alamar Blue diluted in Coculture 1% medium.
(§8) Viability was assessed using the Alamar Blue assay 24 h and 48 h after exposure according to the protocol detailed in example 2 above.
(§9) The concentration leading to 25% of cytotoxicity (meaning 75% of viability: CV75) relatively compared to the vehicle control was determined using the graphs presented in example 2.

[5] = test system: THP-1 cells in monoculture; test: Viability of THP-1 cells in monoculture in submerged conditions; type: cell-based, human; conditions: 24 h exposure, up to maximum of solubility in medium containing 0.2% of DMSO
Protocol: as §3

[6] = test system: tetraculture in vitro lung model; test: Cytokines released in the tetraculture in vitro lung model; type: cell-based, human; parameters: key: ?: indicates a decrease of cytokine release compared to the vehicle control; ?: indicates an increase of cytokine release compared to the vehicle control; =: indicates no change observed between exposure and the vehicle control; ?: indicates a decrease of cytokine release compared to the vehicle control; ?: indicates an increase of cytokine release compared to the vehicle control
Protocol: as §1, §2
Table 2 below gives a summary of the results obtained for all cytokines measured, wherein, ? indicates a decrease of cytokine release compared to the vehicle control, ? indicates an increase of cytokine release compared to the vehicle control and =indicates no change observed between exposure and the vehicle control: […]

[7] = test system: tetraculture lung model (A549, EA.hy926, THP-1, Mϕ-THP-1)
Protocol: as §4, §5, §6, §7, §8, §9

Row | Molecule | expression of CD86 on THP-1 cells [1] | expression of cell surface marker CD54 on THP-1 cells [2] | expression of cell surface marker CD86 on THP-1 cells [2] | solubility [3] | cell viability of the alveolar tissue model (in words) [4] | cytotoxicity of THP-1 cells [5] | IL-7 release compared to the vehicle control ([6]; 24 h) | MCP-1 release compared to the vehicle control ([6]; 24 h) | IL-7 release compared to the vehicle control ([6]; 48 h) | IL-10 release compared to the vehicle control ([6]; 48 h) | MCP-1 release compared to the vehicle control ([6]; 48 h) | expression of CD54 on THP-1 cells [1] | expression of cell surface marker IL7ra on THP-1 cells [2] | RANTES release compared to the vehicle control ([6]; 24 h) | cell viability of the alveolar tissue model (in words) [7]
1 | O=C(O)c1ccc2c(c1)C(=O)OC2=O [TMA, Trimellitic Anhydride] | lower than the vehicle control | Increases | Increases | low solubility | decrease in viability | not possible to reach any cytotoxity | = | = | = | = | = | – | – | – | –
2 | C=CC=O [Acrolein] | – | no increase | no increase | – | – | – | – | – | – | – | = | increase | decrease | = | –
3 | O=C1OC(=O)c2ccccc21 [PA, Phthalic Anhydrid] | – | Increases | Increases | low solubility | decrease in viability | not possible to reach any cytotoxity | = | = | = | – | – | – | – | – | –
4 | Bet v1: additional known protein sensitizer; important protein allergen of pollen (protein, UniProt P15494 2-160, looked up) Major pollen allergen Bet v …: GVFNYETETTSVIPAARLFKAFILDGDNLFPKVAPQAISSVENIEGNGGPGTIKKISFPEGFPFKYVKDRVDEVDHTNFKYNYSVIEGGPIGDTLEKISNEIKIVATPDGGSILKISNKYHTKGDHEVKAEQVKASKEMGETLLRAVESYLLAHSDAYN | – | – | – | – | – | – | – | – | – | – | – | – | – | – | No effect
